Experimental data reported in PMC3397457, “Preclinical Evaluation of Anticancer Efficacy and Pharmacological Properties of FBA-TPQ, a Novel Synthetic Makaluvamine Analog” (Marine Drugs, 2012).

Columns and labels:
[1] = tested on: murine hepatic S9 fractions containing Phase I and II metabolic enzymes; assay: S9 metabolism; format: in vitro ADME; details: mouse hepatic S9, 10 μM, 60 min incubation
Protocol: As a preliminary study of the metabolism of FBA-TPQ, the compound was incubated with S9 fractions containing Phase I and Phase II metabolic enzymes and their co-factors for 15, 30, 45, or 60 min. […] No specific peaks that seemed to correspond to unique metabolites were identified using the current RRLC method.
A preliminary study of the metabolism of FBA-TPQ was done using murine hepatic S9 fractions containing Phase I and II metabolic enzymes. […] Duplicate aliquots of the mixtures were taken at 0, 15, 30, 45, and 60 min, and the samples were processed and analyzed. The percent of FBA-TPQ that was metabolized by Phase I and Phase II enzymes was calculated by comparing the initial concentration of the iminoquinone to the measured concentration following incubation.

[2] = MTT cell survival assay, IMR-90 normal fibroblasts; format: cell-based; details: human, IMR-90 normal fetal fibroblast cells, read-out: Cytotoxicity IC50
Protocol: (§1) We evaluated the effects of FBA-TPQ on the survival of several human pancreatic cancer cell lines, including HPAC (p53^+/+), Panc-1(p53^+/−), and Mia PaCa-2(p53^+/−), as well as normal IRM90 fetal fibroblast cells (Figure 2a). Cells were exposed to various concentrations of the test compound (0–10 µM) for 72 h, and cell survival rates were determined by the MTT assay, using a procedure reported previously. FBA-TPQ exerted potent effects against the test cancer cell lines, leading to significant decreases in cell viability.
(§2) Human pancreatic cancer cells were obtained from the American Type Culture Collection (Rockville, MD). All cell culture media contained 10% FBS and 1% penicillin/streptomycin. […]
(§3) The effect of the test compound on human pancreatic cancer cell viability, expressed as the percentage of cell survival, was determined using the MTT (3-(4,5-dimethylthiazol-2-yl)-2,5-diphenyl tetrazolium bromide) assay. […] The absorbance at 570 nm was recorded using an OPTImax microplate reader (Molecular Devices; Sunnyvale, CA, USA). The cell survival percentages were calculated by dividing the mean OD of compound-containing wells by that of DMSO-containing control wells. […]

[3] = tested on: HPAC cells; assay: MTT cell survival assay, HPAC; format: cell-based; details: Homo sapiens, 72 h, read-out: Cytotoxicity IC50
Protocol: as §1, §2, §3

[4] = tested on: human pancreatic cancer cell lines (HPAC, Panc-1, Mia PaCa-2); assay: MTT cell survival assay, pancreatic cancer cell lines taken together; format: cell-based; details: 72 h
Protocol: as §1
The effect of the test compound on human pancreatic cancer cell viability, expressed as the percentage of cell survival, was determined using the MTT (3-(4,5-dimethylthiazol-2-yl)-2,5-diphenyl tetrazolium bromide) assay. The MTT assay is colorimetric assay for measuring the activity of enzymes that reduce MTT to formazan dyes, giving a purple color. Cells were grown in 96-well plates at 4–5 × 10^3 cells per well and exposed to different concentrations of the test compound (0, 0.1, 0.25, 0.5, 0.75, 1, 5 and 10 µM). […] The absorbance at 570 nm was recorded using an OPTImax microplate reader (Molecular Devices; Sunnyvale, CA, USA). The cell survival percentages were calculated by dividing the mean OD of compound-containing wells by that of DMSO-containing control wells. […]

[5] = tested on: Mia PaCa-2 cells; assay: Cell cycle distribution by flow cytometry, Mia PaCa-2; format: cell-based, human; details: Mia PaCa-2, 1 µM
Protocol: (§4) The effects of FBA-TPQ on cell cycle distribution were analyzed using the previously reported methods; its effects appeared to be cell-line-dependent (Figure 2c). […] The differences in the responses of the different cell lines may be related to their expression of p53.
(§5) To determine the effect of FBA-TPQ on the cell cycle, cells (2–3 × 10^5) were exposed to the test compounds (0, 0.1, 0.5 or 1 µM) and incubated for 24 h prior to analysis. Cells were trypsinized, washed with PBS, and fixed in 1.5 mL of 95% ethanol and 0.5 mL of 0.9% saline solution at 4 °C overnight, followed by incubation with RNAse and staining with propidium iodide (Sigma). The DNA content was determined by flow cytometry. The cell cycle distribution was evaluated by comparing with that of the control cells.

[6] = tested on: Panc-1 cells; assay: Cell cycle distribution by flow cytometry, Panc-1; format: cell-based, human; details: Panc-1, 1 µM
Protocol: as §4, §5

[7] = tested on: Mia PaCa-2 cells; assay: Annexin V apoptosis assay/flow cytometry, Mia PaCa-2; format: cell-based, human; details: Mia PaCa-2, 1 µM, 48 h
Protocol: The apoptotic cells were detected using a method reported previously. […] In HPAC cells, a 1 µM concentration of FBA-TPQ increased the apoptotic index two-fold higher than that seen in control cells (P < 0.01). […] In the Mia PaCa-2 cells, FBA-TPQ at 1 µM led to a three-fold increase in apoptosis (P < 0.01).
Following a similar protocol as above, cells in early and late stages of apoptosis were detected using an Annexin V-FITC apoptosis detection kit from BioVision (Mountain View, CA, USA), according to the manufacturer’s protocol. For apoptosis experiments, 2–3 × 10^5 cells were exposed to the test compound (0, 0.1, 0.5 and 1.0 µM) and incubated for 48 h prior to analysis. Cells were collected and washed with serum-free media. Cells were then re-suspended in 500 µL of Annexin V binding buffer followed by addition of 5 µL of Annexin V-FITC and 5 µL of propidium iodide (PI). The samples were incubated in the dark for 5 min at room temperature and analyzed with a Becton Dickinson FACSCalibur instrument (Ex = 488 nm; Em = 530 nm). Cells that were positive for Annexin V-FITC alone (early apoptosis) and Annexin V-FITC and PI (late apoptosis) were counted. The apoptotic index was calculated against the untreated control cells.

For `O=C1C(NCc2ccc(F)cc2)=CC2=NCCc3c[nH]c1c32` [FBA-TPQ, 7-(4-fluorobenzylamino)-1,3,4,8-tetrahydropyrrolo[4,3,2-de]quinolin-8(1H)-one], the “compound metabolized by Phase I components” value [1] was “approximately 14.3%”, the “compound metabolized by Phase II components” value [1] was roughly 1.8% and the IC50 at 72 h [2] was 5.82 ± 0.46 µM. The IC50 [3] was 0.54 ± 0.03 µM, the “differences in IC50, normal IMR90 fibroblasts vs pancreatic cancer cells” value [4] was 10–50 fold and the cell cycle arrest [5] was “arrest in the S phase”. For the same compound, the cell cycle arrest [6] was “arrest in the S phase” and the “increase in apoptosis vs control cells” value [7] was “three-fold”.
